Test results taken from patent publication EP4603105A1, “PHARMACEUTICAL COMPOSITION CONTAINING CYCLIC COMPOUND HAVING SELECTIVE KRAS INHIBITORY EFFECT AGAINST HRAS AND NRAS” (CHUGAI SEIYAKU KABUSHIKI KAISHA, priority 2022, dated 2024).

How the values were obtained:
[1] = biological target: GDP-bound NRAS wild-type protein (Homo sapiens, UniProt P01111); experiment: Binding to NRAS by surface plasmon resonance (SPR), KD and KD ratio to KRAS; details: ratio of the KD value with respect to GDP-bound NRAS wild-type protein to the KD value with respect to KRAS
Chain of GDP-bound NRAS wild-type protein (P01111 whole entry): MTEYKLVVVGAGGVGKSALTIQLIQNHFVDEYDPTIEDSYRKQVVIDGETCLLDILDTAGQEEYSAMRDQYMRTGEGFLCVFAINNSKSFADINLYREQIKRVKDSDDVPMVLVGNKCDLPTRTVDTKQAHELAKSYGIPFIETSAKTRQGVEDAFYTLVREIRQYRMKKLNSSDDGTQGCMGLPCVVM
How it was run: (§1)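 Captured GDP-RAS (~100–300 RU) was exposed to increasing compound concentrations, 75 s per step, in running buffer with 10 µM GDP, 10 mM MgCl2 and 4% DMSO at pH 7.4.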

HRAS wild-type protein = HRAS wild-type protein (Homo sapiens, UniProt P01112); experiment: Binding to HRAS by surface plasmon resonance (SPR), KD and KD ratio to KRAS; details: ratio of the KD value with respect to HRAS wild-type protein to the KD value with respect to KRAS
Chain of HRAS wild-type protein (P01112 whole entry): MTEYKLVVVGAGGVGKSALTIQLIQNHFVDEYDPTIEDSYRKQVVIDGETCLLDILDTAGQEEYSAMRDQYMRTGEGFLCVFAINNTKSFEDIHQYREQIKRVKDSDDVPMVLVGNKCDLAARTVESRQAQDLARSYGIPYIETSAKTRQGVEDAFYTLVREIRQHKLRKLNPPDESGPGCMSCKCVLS
How it was run: as §1

[2] = test system: human lung cancer strain NCI-H441; type: cell-based
How it was run: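 Step one: dispense the test compound in serial DMSO dilutions. Step three: add the reagent and measure […].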

SMILES	NRAS /KRAS [1]	HRAS /KRAS (HRAS wild-type protein)	IC50 [2] [nM]
CCO[C@@H]1C[C@H]2C(=O)NC3(CC(C)(C)C3)C(=O)N(C)[C@@H](C(CC)CC)C(=O)N(C)[C@H](C(=O)N(C)C)CC(=O)N(C)[C@@H](COC)C(=O)N[C@@H]([C@@H](C)CC)C(=O)N(C)CC(=O)N(C)[C@H]3C/C=C\CCN(C3=O)[C@@H](Cc3ccc(C(F)(F)F)cc3)C(=O)N(C)CC(=O)N[C@@H](CCc3ccc(C(F)(F)F)c(OC)c3)C(=O)N2C1 [PP2157]	A (a compound having 10 or more and less than 20 is denoted as A)	A (a compound having 10 or more and less than 20 is denoted as A)	5.9
CCO[C@@H]1C[C@H]2C(=O)NC3(CC(C)(C)C3)C(=O)N(C)[C@@H](C(CC)CC)C(=O)N(C)[C@H](C(=O)N3CCCC3)CC(=O)N(C)[C@@H](COC)C(=O)N[C@@H]([C@@H](C)CC)C(=O)N(C)CC(=O)N(C)[C@H]3C/C=C\CCN(C3=O)[C@@H](Cc3ccc(C(F)(F)F)cc3)C(=O)N(C)CC(=O)N[C@@H](CCc3ccc(C(F)(F)F)c(OC)c3)C(=O)N2C1 [PP2159]	AA (a compound having 20 or more is denoted as AA)	A (a compound having 10 or more and less than 20 is denoted as A)	19.5
CCC[C@H]1C(=O)N[C@@H]([C@@H](C)CC)C(=O)N(C)CC(=O)N(C)[C@H]2C/C=C\CCN(C2=O)[C@@H](Cc2ccc(C(F)(F)F)cc2)C(=O)N(C)CC(=O)N[C@@H](CCc2ccc(C(F)(F)F)c(OC)c2)C(=O)N2C[C@H](OCC)C[C@H]2C(=O)NC2(CC(C)(C)C2)C(=O)N(C)[C@@H](C(CC)CC)C(=O)N(C)[C@H](C(=O)N(C)C)CC(=O)N1C [PP2160]	A (a compound having 10 or more and less than 20 is denoted as A)	A (a compound having 10 or more and less than 20 is denoted as A)	5.4
CCO[C@@H]1C[C@H]2C(=O)NC3(CC(C)(C)C3)C(=O)N(C)[C@@H](C(CC)CC)C(=O)N(C)[C@H](C(=O)N(C)C)CC(=O)N(C)[C@@H](CC(C)C)C(=O)N[C@@H]([C@@H](C)CC)C(=O)N(C)CC(=O)N(C)[C@H]3C/C=C\CCN(C3=O)[C@@H](Cc3ccc(C(F)(F)F)cc3)C(=O)N(C)CC(=O)N[C@@H](CCc3ccc(C(F)(F)F)c(OC)c3)C(=O)N2C1 [PP2161]	AA (a compound having 20 or more is denoted as AA)	A (a compound having 10 or more and less than 20 is denoted as A)	12.4
CCO[C@@H]1C[C@H]2C(=O)NC3(CC(C)(C)C3)C(=O)N(C)[C@@H](C(CC)CC)C(=O)N(C)[C@H](C(=O)N3CCCC3)CC(=O)N(C)[C@@H](C)C(=O)N[C@@H]([C@@H](C)CC)C(=O)N(C)CC(=O)N(C)[C@H]3C/C=C\CCN(C3=O)[C@@H](Cc3ccc(C(F)(F)F)cc3)C(=O)N(C)CC(=O)N[C@@H](CCc3ccc(C(F)(F)F)c(OC)c3)C(=O)N2C1 [PP2163]	A (a compound having 10 or more and less than 20 is denoted as A)	A (a compound having 10 or more and less than 20 is denoted as A)	18.2
CCO[C@@H]1C[C@H]2C(=O)NC3(CC(C)(C)C3)C(=O)N(C)[C@@H](C(CC)CC)C(=O)N(C)[C@H](C(=O)N(C)C)CC(=O)N(C)[C@@H](CC3CCC3)C(=O)N[C@@H]([C@@H](C)CC)C(=O)N(C)CC(=O)N(C)[C@H]3C/C=C\CCN(C3=O)[C@@H](Cc3ccc(C(F)(F)F)cc3)C(=O)N(C)CC(=O)N[C@@H](CCc3ccc(C(F)(F)F)c(OC)c3)C(=O)N2C1 [PP2164]	A (a compound having 10 or more and less than 20 is denoted as A)	A (a compound having 10 or more and less than 20 is denoted as A)	14.2
CCO[C@@H]1C[C@H]2C(=O)NC3(CC(C)(C)C3)C(=O)N(C)[C@@H](C(CC)CC)C(=O)N(C)[C@H](C(=O)N(C)C)CC(=O)N(C)[C@@H](C(C)C)C(=O)N[C@@H]([C@@H](C)CC)C(=O)N(C)CC(=O)N(C)[C@H]3C/C=C\CCN(C3=O)[C@@H](Cc3ccc(C(F)(F)F)cc3)C(=O)N(C)CC(=O)N[C@@H](CCc3ccc(C(F)(F)F)c(OC)c3)C(=O)N2C1 [PP2165]	A (a compound having 10 or more and less than 20 is denoted as A)	A (a compound having 10 or more and less than 20 is denoted as A)	17.5
CCO[C@@H]1C[C@H]2C(=O)NC3(CC(C)(C)C3)C(=O)N(C)[C@@H](C(CC)CC)C(=O)N(C)[C@H](C(=O)N(C)C)CC(=O)N(C)[C@@H](CC3CC3)C(=O)N[C@@H]([C@@H](C)CC)C(=O)N(C)CC(=O)N(C)[C@H]3C/C=C\CCN(C3=O)[C@@H](Cc3ccc(C)cc3)C(=O)N(C)CC(=O)N[C@@H](CCc3ccc(C(F)(F)F)c(OC)c3)C(=O)N2C1 [PP2166]	A (a compound having 10 or more and less than 20 is denoted as A)	A (a compound having 10 or more and less than 20 is denoted as A)	23.7
CCO[C@@H]1C[C@H]2C(=O)NC3(CC(C)(C)C3)C(=O)N(C)[C@@H](C(CC)CC)C(=O)N(C)[C@H](C(=O)N3CCCC3)CC(=O)N(C)[C@@H](COC)C(=O)N[C@@H]([C@@H](C)CC)C(=O)N(C)CC(=O)N(C)[C@H]3C/C=C\CCN(C3=O)[C@@H](Cc3ccc(C)cc3)C(=O)N(C)CC(=O)N[C@@H](CCc3ccc(C(F)(F)F)c(OC)c3)C(=O)N2C1 [PP2167]	AA (a compound having 20 or more is denoted as AA)	A (a compound having 10 or more and less than 20 is denoted as A)	39.1
CCO[C@@H]1C[C@H]2C(=O)NC3(CC(C)(C)C3)C(=O)N(C)[C@@H](C(CC)CC)C(=O)N(C)[C@H](C(=O)N(C)C)CC(=O)N(C)[C@@H](CC(C)C)C(=O)N[C@@H]([C@@H](C)CC)C(=O)N(C)CC(=O)N(C)[C@H]3C/C=C\CCN(C3=O)[C@@H](Cc3ccc(C)cc3)C(=O)N(C)CC(=O)N[C@@H](CCc3ccc(C(F)(F)F)c(OC)c3)C(=O)N2C1 [PP2168]	A (a compound having 10 or more and less than 20 is denoted as A)	A (a compound having 10 or more and less than 20 is denoted as A)	16.9
CCO[C@@H]1C[C@H]2C(=O)NC3(CC(C)(C)C3)C(=O)N(C)[C@@H](C(CC)CC)C(=O)N(C)[C@H](C(=O)N3CCCC3)CC(=O)N(C)[C@@H](C)C(=O)N[C@@H]([C@@H](C)CC)C(=O)N(C)CC(=O)N(C)[C@H]3C/C=C\CCN(C3=O)[C@@H](Cc3ccc(C)cc3)C(=O)N(C)CC(=O)N[C@@H](CCc3ccc(C(F)(F)F)c(OC)c3)C(=O)N2C1 [PP2169]	AA (a compound having 20 or more is denoted as AA)	A (a compound having 10 or more and less than 20 is denoted as A)	62.1
CCO[C@@H]1C[C@H]2C(=O)NC3(CC(C)(C)C3)C(=O)N(C)[C@@H](C(CC)CC)C(=O)N(C)[C@H](C(=O)N(C)C)CC(=O)N(C)[C@@H](CC)C(=O)N[C@@H]([C@@H](C)CC)C(=O)N(C)CC(=O)N(C)[C@H]3C/C=C\CCN(C3=O)[C@@H](Cc3ccc(C)cc3)C(=O)N(C)CC(=O)N[C@@H](CCc3ccc(C(F)(F)F)c(OC)c3)C(=O)N2C1 [PP2170]	A (a compound having 10 or more and less than 20 is denoted as A)	A (a compound having 10 or more and less than 20 is denoted as A)	8.5
CCO[C@@H]1C[C@H]2C(=O)NC3(CC(C)(C)C3)C(=O)N(C)[C@@H](C(CC)CC)C(=O)N(C)[C@H](C(=O)N3CCCC3)CC(=O)N(C)[C@@H](CC)C(=O)N[C@@H]([C@@H](C)CC)C(=O)N(C)CC(=O)N(C)[C@H]3C/C=C\CCN(C3=O)[C@@H](Cc3ccc(C)cc3)C(=O)N(C)CC(=O)N[C@@H](CCc3ccc(C(F)(F)F)c(OC)c3)C(=O)N2C1 [PP2171]	A (a compound having 10 or more and less than 20 is denoted as A)	A (a compound having 10 or more and less than 20 is denoted as A)	19.6
CCO[C@@H]1C[C@H]2C(=O)NC3(CC(C)(C)C3)C(=O)N(C)[C@@H](C(CC)CC)C(=O)N(C)[C@H](C(=O)N(C)C)CC(=O)N(C)[C@@H](CC3CCC3)C(=O)N[C@@H]([C@@H](C)CC)C(=O)N(C)CC(=O)N(C)[C@H]3C/C=C\CCN(C3=O)[C@@H](Cc3ccc(C)cc3)C(=O)N(C)CC(=O)N[C@@H](CCc3ccc(C(F)(F)F)c(OC)c3)C(=O)N2C1 [PP2172]	A (a compound having 10 or more and less than 20 is denoted as A)	B (a compound having 3 or more and less than 10 is denoted as B)	5.8
CCO[C@@H]1C[C@H]2C(=O)NC3(CC(C)(C)C3)C(=O)N(C)[C@@H](C(CC)CC)C(=O)N(C)[C@H](C(=O)N(C)C)CC(=O)N(C)[C@@H](C(C)C)C(=O)N[C@@H]([C@@H](C)CC)C(=O)N(C)CC(=O)N(C)[C@H]3C/C=C\CCN(C3=O)[C@@H](Cc3ccc(C)cc3)C(=O)N(C)CC(=O)N[C@@H](CCc3ccc(C(F)(F)F)c(OC)c3)C(=O)N2C1 [PP2173]	A (a compound having 10 or more and less than 20 is denoted as A)	A (a compound having 10 or more and less than 20 is denoted as A)	19.9
CCO[C@@H]1C[C@H]2C(=O)NC3(CC(C)(C)C3)C(=O)N(C)[C@@H](C(CC)CC)C(=O)N(C)[C@H](C(=O)N3CCCC3)CC(=O)N(C)[C@@H](COC)C(=O)N[C@@H]([C@@H](C)CC)C(=O)N(C)CC(=O)N(C)[C@H]3C/C=C\CCN(C3=O)[C@@H](Cc3ccc(C(F)(F)F)cc3)C(=O)N(C)CC(=O)N[C@@H](CCc3ccc(Cl)c(Cl)c3)C(=O)N2C1 [PP2174]	AA (a compound having 20 or more is denoted as AA)	A (a compound having 10 or more and less than 20 is denoted as A)	24
